We go through 2 compounds from publication PMC3532212 (PLoS ONE, 2012).

One data set deals with rats. Nature of the data set: Urinary sodium excretion in rats. Type of data set: in vivo, rat. The settings on record: subset of telemetry rats administered FTY720; unpublished preliminary observation.
The target in another data set is T1, human S1P3 (Homo sapiens, UniProt Q99500).
T1 construct: host or cells: U2OS (Tango EDG3-bla)
Nature of the data set: B arrestin recruitment assay, Tango EDG3-bla U2OS cells. Type of data set: cell-based. The conditions noted are these: 18 hours agonist incubation. The protocol: (§1) Tango™ EDG1-bla U2OS cells (Human S1P1), Tango™ EDG3-bla U2OS cells (human S1P3), Tango™ EDG6-bla U2OS cells (human S1P4) and Tango™ EDG8-bla U2OS cells (human S1P5) cell lines were cultured and assayed according to manufacturers instructions with one modification; agonists incubated on the cells for 18 hours prior to addition of the GenBlazer substrate. Final DMSO concentration in the assay is 1%.

The target in another data set is T2, human S1P5 (Homo sapiens, UniProt Q9H228).
T2 construct: host or cells: U2OS (Tango EDG8-bla)
The data set is described as follows: B arrestin recruitment assay, Tango EDG8-bla U2OS cells. In kind it is cell-based. The conditions noted are these: 18 hours agonist incubation. Here is the method:
as §1

Another data set deals with anesthetized rats. The data set is described as follows: Left ventricular contractility (LV dP/dtmax) in anesthetized rats. Type of data set: in vivo. The settings on record: anesthetized rat. The protocol: The cardiovascular effects of FTY720 and BAF312 were tested in anesthetized rats (180–200 g). In brief, male Sprague Dawley rats (Charles River) were anesthetized with Inactin (110 mg/kg i.p.) and a tracheotomy performed. The femoral artery and veins were catheterized for measurement of mean arterial pressure and heart rate, collection of blood samples at 20-min intervals (0.2 mL/sample), and for compound infusion/hydration as previously described, [24]; blood samples were also withdrawn in vehicle-treated control rats. FTY720, infused as a hydrochloride salt (0.1, 0.3, 1.0 mg/kg/20-min free base equivalent solubilized in a 100% PEG-400 vehicle), or BAF312 (0.5, 1.5, 5.0 mg/kg/20-min solubilized in a 100% PEG-400 vehicle) were administered via three escalating 20-min infusions (0.011 mL/min) followed by a 1-hr post-treatment period. […] In a separate group of anesthetized rats in which left ventricular (LV) contractility was also recorded with a Millar pressure transducer introduced into the left ventricle, BAF312 was infused in the same dosing regimen as the studies described above (0.5, 1.5, 5.0 mg/kg/20-min solubilized in a 100% PEG-400 vehicle) and effects on LV dP/dtmax were recorded.

T1 sequence (Q99500 whole entry): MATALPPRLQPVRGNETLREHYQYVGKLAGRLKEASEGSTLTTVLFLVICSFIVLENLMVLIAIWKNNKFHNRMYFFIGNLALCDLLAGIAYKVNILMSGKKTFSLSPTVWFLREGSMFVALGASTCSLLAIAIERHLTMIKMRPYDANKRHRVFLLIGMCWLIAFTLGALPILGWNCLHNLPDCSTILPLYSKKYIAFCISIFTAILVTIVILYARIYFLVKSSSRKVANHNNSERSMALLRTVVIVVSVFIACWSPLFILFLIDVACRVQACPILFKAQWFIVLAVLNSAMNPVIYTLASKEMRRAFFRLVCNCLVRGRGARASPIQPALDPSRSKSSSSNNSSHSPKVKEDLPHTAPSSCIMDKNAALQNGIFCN
T2 sequence (Q9H228 whole entry): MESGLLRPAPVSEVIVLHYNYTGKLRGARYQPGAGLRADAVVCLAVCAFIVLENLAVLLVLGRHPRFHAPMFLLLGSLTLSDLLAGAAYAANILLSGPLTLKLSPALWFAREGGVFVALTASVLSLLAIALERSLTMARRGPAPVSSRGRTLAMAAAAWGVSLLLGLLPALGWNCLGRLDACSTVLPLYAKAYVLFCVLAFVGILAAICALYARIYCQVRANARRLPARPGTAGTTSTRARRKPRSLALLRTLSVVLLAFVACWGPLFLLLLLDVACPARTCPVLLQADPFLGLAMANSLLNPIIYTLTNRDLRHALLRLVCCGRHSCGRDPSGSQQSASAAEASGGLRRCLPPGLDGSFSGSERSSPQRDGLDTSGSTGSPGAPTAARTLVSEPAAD

For `CCCCCCCCc1ccc(CCC(N)(CO)CO)cc1` [FTY720], the urinary sodium excretion entry in the data set with rats is on record as “reduction in urinary sodium excretion”.

Consider `CCc1cc(/C(C)=N/OCc2ccc(C3CCCCC3)c(C(F)(F)F)c2)ccc1CN1CC(C(=O)O)C1` [BAF312], for which the concentration for a half-maximal effect (EC50) at human S1P3 was greater than 10000 nM; at human S1P5, 0.8 nM. For the same compound, the “decrease in dP/dt” value with anesthetized rats (BAF312, 5.0 mg/kg dose group) is given as “not maintained”. For the same compound, the “LV dP/dtmax, below values in vehicle control animals” value with anesthetized rats (BAF312, end of the 1.5 mg/kg i.v. infusion) is on record as −5±4%.
